Source: PubChem BioAssay AID1963850 (Molecular Pharmacology Branch, DTP, NCI, 2024)

Tested on: 192522-019-R-J2-PDC complex tumor spheroid viability
Assay: Anticancer human tumor 192522-019-R-J2-PDC patient-derived colon adenocarcinoma cell line growth inhibition [POLQ]
Conditions: for IC50: curve of first compound; for viability, T/C: stronger effect = lower value
Experimental: Multicellular complex tumor spheroid response to Polymerase (POL) inhibitors (novobiocin, ART-558, RP6685) in combination with a variety of drugs and investigational agents in selected tumor cell lines
The POL inhibitors (novobiocin, ART-558, and RP6685) were evaluated both individually and in combination with standard of care and investigational anticancer small molecules within a complex spheroid model of solid tumors. . Complex spheroids include a stromal component modeled by human endothelial cells (HUVEC) and fibroblasts modeled by human mesenchymal stem cells (MSCs). The concentration ranges selected for each drug and investigational agent were based upon clinically achievable concentrations if the clinical Cmax of the agent was known.
Compounds. The drugs and investigational agents: novobiocin (NSC847541), ART-558 (NSC835418), RP-6685 (NSC848927), peposertib (NSC802822), ceralasertib (NSC780249), elimusertib (NSC800525), camonsertib (NSC841442), AZD-1390 (NSC803789), olaparib (NSC753686), talazoparib (NSC767125), rucaparib (NSC756644), sotorasib (NSC818433), MRTX-1133 (NSC836407), SN-38 (NSC673596), topotecan (NSC609699), epotoside (NSC141540), doxorubicin (NSC123127), gemcitabine (NSC613327), 5-fluorouracil (NSC19893), paclitaxel (NSC125973), vemurafenib (NSC761431), MSA-2 (NSC828583), SN-011 (NSC837082), adavosertib (NSC754352), prexasertib (NSC758257), carboplatin (NSC241240) and oxaliplatin (NSC266046), were obtained from the National Cancer Institute (NCI) Developmental Therapeutics Program Chemical Repository (21). The FDA-approved anticancer drug set is available from the Developmental Therapeutics Program at https://dtp.cancer.gov/organization/dscb/obtaining/. […] The stock solutions were prepared in dimethyl sulfoxide (DMSO, Sigma-Aldrich, St. Louis, MO, cat. D2650), except for the platinum compounds which were prepared in saline (Quality Biological, Gaithersburg, MD, cat. 114-055-101), at 800-fold the tested concentration and stored at -70 degrees C prior to their use. All drugs and investigational agents were tested over a range starting from a high concentration at or near the clinical Cmax and decreasing in half-log increments. If the clinical Cmax for an agent had not been determined, the highest concentration tested was 10 microM, except for SN-38, which was tested at a high concentration of 1 microM.
Cell Culture. All cells were maintained in an incubator at 37 degrees C and 5% CO2 with 95% humidity. The PDC lines were cultured according to standard operating procedures established by the NCI PDMR (https://pdmr.cancer.gov). Table 3 of the manuscript, lists the cell lines along with the number of the three cell types plated to form the mct-spheroids and media for tumor cell growth. After thawing, all PDC lines, except 997537-175-T-J1-PDC and 415267-285-R-J2-PDC, were cultured in Matrigel-coated flasks prepared with a working solution of 1X Ham's F-12 nutrient mix, without supplementation (Thermo Fisher Scientific, cat. 11765054), 100 U/mL penicillin-streptomycin (Thermo Fisher Scientific, cat. 15140122), and 2.5% Matrigel (Corning Inc., Corning, NY, cat. 354248) for the first three passages. The two PDC lines 997537-175-T-J1-PDC and 415267-285-R-J2-PDC were cultured on uncoated flasks. The 857933-349-R-J2-PDC line was cultured in 6C/Colon 1B media containing advanced DMEM/F-12 (Thermo Fisher Scientific, cat. 12634028), 10 mM HEPES (Thermo Fisher Scientific, cat. 15630080), 1X GlutaMAX supplement (Thermo Fisher Scientific, cat. 35050061), 0.1 mg/mL primocin (InvivoGen, San Diego, CA, cat. ant-pm-2), 10% defined fetal bovine serum, heat inactivated (HyClone Laboratories Inc., Logan, UT, cat. SH30070.03HI), 50% L-WRN conditioned media (ATCC, cat. CRL-3276), 1.25 mM N-Acetyl-L-cysteine (Sigma-Aldrich, cat. A9165), 10 mM nicotinamide (Sigma-Aldrich, cat. N0636), 1X B-27 supplement (Thermo Fisher Scientific, cat. 17504044), 1X N-2 supplement (Thermo Fisher Scientific, cat. […]
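Further: spheroids exposed to drugs for seven days before reading.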
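Wherever viability, T/C is given: 100% = DMSO vehicle control viability in luminescence.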

CC(=O)O[C@H]1C(=O)[C@@]2(C)[C@H]([C@H](OC(=O)c3ccccc3)[C@]3(O)C[C@H](OC(=O)[C@H](O)[C@@H](NC(=O)c4ccccc4)c4ccccc4)C(C)=C1C3(C)C)[C@]1(OC(C)=O)CO[C@@H]1C[C@@H]2O + Cc1cccc(N(C)C(=O)C2C(O)CCN2c2nc(C)cc(C(F)(F)F)c2C#N)c1 showed an IC50 (second compound 0.0316 µM) of over 3000 nM, an IC50 (second compound 0.1 µM) of over 3000 nM and an IC50 (second compound 0.316 µM) of over 3000 nM. It also gave an IC50 (second compound 1 µM) of over 3000 nM, an IC50 (second compound 3.16 µM) of over 3000 nM and an IC50 (second compound 10 µM) of over 3000 nM. The viability, T/C (second compound 0.0316 µM, first compound 0.00949 µM) was 90%, the viability, T/C (second compound 0.0316 µM, first compound 0.03 µM) was 69.4% and the viability, T/C (second compound 0.0316 µM, first compound 0.0949 µM) was 52.2%. For the same compound, the viability, T/C (second compound 0.0316 µM, first compound 0.3 µM) was 59%, the viability, T/C (second compound 0.0316 µM, first compound 0.949 µM) was 56.8% and the viability, T/C (second compound 0.0316 µM, first compound 3 µM) was 54.7%. For the same compound, the viability, T/C (second compound 0.1 µM, first compound 0.00949 µM) was 98.5%, the viability, T/C (second compound 0.1 µM, first compound 0.03 µM) was 74.3% and the viability, T/C (second compound 0.1 µM, first compound 0.0949 µM) was 53.1%. The viability, T/C (second compound 0.1 µM, first compound 0.3 µM) was 64.4%, the viability, T/C (second compound 0.1 µM, first compound 0.949 µM) was 60.4% and the viability, T/C (second compound 0.1 µM, first compound 3 µM) was 57.9%. It also gave a viability, T/C (second compound 0.316 µM, first compound 0.00949 µM) of 92.1%, a viability, T/C (second compound 0.316 µM, first compound 0.03 µM) of 79.5% and a viability, T/C (second compound 0.316 µM, first compound 0.0949 µM) of 61.8%. For the same compound, the viability, T/C (second compound 0.316 µM, first compound 0.3 µM) was 58.4%, the viability, T/C (second compound 0.316 µM, first compound 0.949 µM) was 64.3% and the viability, T/C (second compound 0.316 µM, first compound 3 µM) was 62.4%. For the same compound, the viability, T/C (second compound 1 µM, first compound 0.00949 µM) was 102%, the viability, T/C (second compound 1 µM, first compound 0.03 µM) was 84% and the viability, T/C (second compound 1 µM, first compound 0.0949 µM) was 61.1%. It also gave a viability, T/C (second compound 1 µM, first compound 0.3 µM) of 60.3%, a viability, T/C (second compound 1 µM, first compound 0.949 µM) of 54.3% and a viability, T/C (second compound 1 µM, first compound 3 µM) of 55.5%. It also gave a viability, T/C (second compound 3.16 µM, first compound 0.00949 µM) of 105%, a viability, T/C (second compound 3.16 µM, first compound 0.03 µM) of 79.8% and a viability, T/C (second compound 3.16 µM, first compound 0.0949 µM) of 61.8%. It also gave a viability, T/C (second compound 3.16 µM, first compound 0.3 µM) of 59.5%, a viability, T/C (second compound 3.16 µM, first compound 0.949 µM) of 65.8% and a viability, T/C (second compound 3.16 µM, first compound 3 µM) of 57.4%. For the same compound, the viability, T/C (second compound 10 µM, first compound 0.00949 µM) was 94%, the viability, T/C (second compound 10 µM, first compound 0.03 µM) was 67.8% and the viability, T/C (second compound 10 µM, first compound 0.0949 µM) was 58.3%. It also gave a viability, T/C (second compound 10 µM, first compound 0.3 µM) of 58.9%, a viability, T/C (second compound 10 µM, first compound 0.949 µM) of 56.8% and a viability, T/C (second compound 10 µM, first compound 3 µM) of 63.3%.

COc1cccc(OCCCN)c1-c1cc(Nc2cnc(C#N)cn2)n[nH]1 + COC1C(OC(N)=O)C(O)C(Oc2ccc3c(O)c(NC(=O)c4ccc(O)c(CC=C(C)C)c4)c(=O)oc3c2C)OC1(C)C was tested, and the IC50 (second compound 0.0316 µM) was 14.3 nM, the IC50 (second compound 0.1 µM) was 15.7 nM and the IC50 (second compound 0.316 µM) was 15.8 nM. The IC50 (second compound 1 µM) was 16.6 nM, the IC50 (second compound 3.16 µM) was 18.6 nM and the IC50 (second compound 10 µM) was 18.9 nM. The viability, T/C (second compound 0.0316 µM, first compound 0.00316 µM) was 96%, the viability, T/C (second compound 0.0316 µM, first compound 0.01 µM) was 55.5% and the viability, T/C (second compound 0.0316 µM, first compound 0.0316 µM) was 38%. It also gave a viability, T/C (second compound 0.0316 µM, first compound 0.1 µM) of 30.8%, a viability, T/C (second compound 0.0316 µM, first compound 0.316 µM) of 30.7% and a viability, T/C (second compound 0.0316 µM, first compound 1 µM) of 30.5%. It also gave a viability, T/C (second compound 0.1 µM, first compound 0.00316 µM) of 94.7%, a viability, T/C (second compound 0.1 µM, first compound 0.01 µM) of 58.7% and a viability, T/C (second compound 0.1 µM, first compound 0.0316 µM) of 35.3%. The viability, T/C (second compound 0.1 µM, first compound 0.1 µM) was 35%, the viability, T/C (second compound 0.1 µM, first compound 0.316 µM) was 28.9% and the viability, T/C (second compound 0.1 µM, first compound 1 µM) was 28.2%. The viability, T/C (second compound 0.316 µM, first compound 0.00316 µM) was 90%, the viability, T/C (second compound 0.316 µM, first compound 0.01 µM) was 60.6% and the viability, T/C (second compound 0.316 µM, first compound 0.0316 µM) was 33.6%. It also gave a viability, T/C (second compound 0.316 µM, first compound 0.1 µM) of 31.8%, a viability, T/C (second compound 0.316 µM, first compound 0.316 µM) of 27.2% and a viability, T/C (second compound 0.316 µM, first compound 1 µM) of 29.9%. It also gave a viability, T/C (second compound 1 µM, first compound 0.00316 µM) of 84.8%, a viability, T/C (second compound 1 µM, first compound 0.01 µM) of 61.8% and a viability, T/C (second compound 1 µM, first compound 0.0316 µM) of 35.2%. It also gave a viability, T/C (second compound 1 µM, first compound 0.1 µM) of 30.1%, a viability, T/C (second compound 1 µM, first compound 0.316 µM) of 30.9% and a viability, T/C (second compound 1 µM, first compound 1 µM) of 30.5%. The viability, T/C (second compound 3.16 µM, first compound 0.00316 µM) was 87.6%, the viability, T/C (second compound 3.16 µM, first compound 0.01 µM) was 69.5% and the viability, T/C (second compound 3.16 µM, first compound 0.0316 µM) was 33.3%. The viability, T/C (second compound 3.16 µM, first compound 0.1 µM) was 28.9%, the viability, T/C (second compound 3.16 µM, first compound 0.316 µM) was 35.6% and the viability, T/C (second compound 3.16 µM, first compound 1 µM) was 32.1%. The viability, T/C (second compound 10 µM, first compound 0.00316 µM) was 89.7%, the viability, T/C (second compound 10 µM, first compound 0.01 µM) was 64.6% and the viability, T/C (second compound 10 µM, first compound 0.0316 µM) was 38.4%. It also gave a viability, T/C (second compound 10 µM, first compound 0.1 µM) of 32%, a viability, T/C (second compound 10 µM, first compound 0.316 µM) of 32.5% and a viability, T/C (second compound 10 µM, first compound 1 µM) of 34%.
